Data from PMC4365786 (Chemistry & biology, 2015).

Columns and labels:
[1] = tested on: α-tubulin acetylation in HCT116 and A549 cells; assay: Western blotting of α-tubulin acetylation; type: cell-based; settings: TSA 0.2 μM, UF010 2 μM, 1 h before lysis
[2] = tested on: acetylated histones in HCT116 cells; assay: Western blotting of histone acetylation after 1 h exposure; type: cell-based; settings: TSA 0.2 μM, other compounds 2 μM
[3] = tested on: histone acetylation (H3K18ac) in HCT116 cells; assay: Drug washout, histone acetylation by Western blotting; type: cell-based; settings: 6 h pulse then washout, time counted from drug addition
[4] = tested on: HDACs in HCT116; type: cell-based; settings: HCT116 (Fig. 2C) and HepG2 cells (data not shown)
[5] = tested on: MDA-MB-231 cells; assay: Cell viability assay; type: cell-based; settings: read-out: IC50 viability MDA-MB-231, CellTiter-Glo, 96 h (Fig. 3C)
[6] = tested on: MDA-MB-231 cells; assay: Wound healing cell migration assay; type: cell-based; settings: MDA-MB-231 monolayer scratch; UF010 at 1 μM
[7] = tested on: MDA-MB-231 cells; assay: Cell cycle analysis by FACS; type: cell-based; settings: MDA-MB-231, 24 h exposure
[8] = target: HDAC2 (Homo sapiens, UniProt Q92769); assay: HDAC2 inhibition kinetics; type: biochemical; settings: purified HDAC2
HDAC2, sequence (Q92769 whole entry): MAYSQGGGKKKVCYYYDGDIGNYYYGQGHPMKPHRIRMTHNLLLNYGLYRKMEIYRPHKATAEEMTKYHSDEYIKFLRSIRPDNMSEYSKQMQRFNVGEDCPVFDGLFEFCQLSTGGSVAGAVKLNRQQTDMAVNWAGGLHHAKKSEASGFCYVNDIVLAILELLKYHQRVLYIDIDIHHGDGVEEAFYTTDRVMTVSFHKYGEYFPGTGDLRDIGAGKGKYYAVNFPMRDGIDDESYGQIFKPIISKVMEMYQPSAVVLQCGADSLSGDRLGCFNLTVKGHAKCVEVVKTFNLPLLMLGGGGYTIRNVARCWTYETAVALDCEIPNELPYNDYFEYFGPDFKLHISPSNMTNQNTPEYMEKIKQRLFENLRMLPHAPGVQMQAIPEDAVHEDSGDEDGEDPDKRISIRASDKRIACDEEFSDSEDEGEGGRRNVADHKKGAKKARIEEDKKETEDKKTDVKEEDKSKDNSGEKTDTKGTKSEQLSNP

[9] = tested on: Sin3 complex; assay: Inhibition of the Sin3 complex; settings: data not shown
[10] = bovine, serum
[11] = tested on: HCT116 cells; assay: Cell viability assay; type: cell-based; settings: Homo sapiens, HCT-116, 96 h, read-out: IC50 for killing HCT116 cells
[12] = tested on: HepG2 cells; assay: Cell viability assay; type: cell-based; settings: CellTiter-Glo, 96 h

SMILES | effect on α-tubulin acetylation [1] | induction of histone acetylation [2] | time up to which induced histone acetylation was maintained [3] | effect on cell cycle progression [7] | other results
CC(/C=C/C(=O)NO)=C\[C@@H](C)C(=O)c1ccc(N(C)C)cc1 [TSA, trichostatin A, reference compound] | dramatically increased | strongly induced acetylation at some sites but weakly at other sites |  |  | 
C/C=C1\NC(=O)[C@H]2CSSCC/C=C/[C@H](CC(=O)N[C@H](C(C)C)C(=O)N2)OC(=O)[C@H](C(C)C)NC1=O [Romi-depsin, romidepsin] |  |  | up to 24 h |  | 
CCCCNNC(=O)c1ccc(Br)cc1 [UF010] | had no effect | consistently induced the accumulation of acetylated histones at all sites | up to 96 h | mainly blocked G1/S transition | fold more potent than MS-275 against HDACs in cells [4]: about 5 fold; IC50 [5]: 29.1 µM; effect on cell migration [6]: markedly slowed migration; mechanism of HDAC2 inhibition vs. substrate [8]: competitive inhibitor; inhibition of the Sin3 complex [9]: can inhibit; half-life in cell culture medium [10]: 15.8 h
Nc1ccccc1NC(=O)c1ccc(CNC(=O)OCc2cccnc2)cc1 [MS-275, entinostat] |  | only slightly induced acetylation at several sites but failed to induce acetylation at most sites | at least 48 h |  | IC50 [11]: 2.1 µM
O=C(CCCCCCC(=O)Nc1ccccc1)NO [SAHA, vorinostat, reference compound] |  |  |  | inhibited G1/S progression at 1 μM but induced a strong G2/M block at 10 μM | 
CCCCNNC(=O)c1ccc(N(C)C)cc1 [SR-3208] |  |  |  |  | fold more potent than UF010 in eliciting cytotoxicity [12]: 3 fold
